The results in this text go back to US5981530A, “Piperazine derivative” (Senju Pharmaceutical Co., Ltd., priority 1995, dated 1999).

Counter-ions that a name gives are not always drawn.

This test has as its system rat palpebral PCA reaction. Nature of the test: Passive cutaneous anaphylactic (PCA) reaction of the rat palpebra. The following applies: 100 mg/5 ml/kg oral, 60 min prior to induction of PCA; for Degree of Inhibition (%): vs negative control. In kind it is in vivo, rat (male Wistar). Here is the method: Effect of the compound of the invention on the passive cutaneous anaphylactic (PCA) reaction of the rat palpebra
The effect of the compound of the invention on rat palpebral PCA reaction was investigated.
Male Wistar rats weighing about 120 g were purchased from Japan SLC for the experiment.
Using a microsyringe, 25 μl of antiserum (32-fold dilution) was injected beneath the palpebral conjunctiva of the right eye of rats under pentobarbital anesthesia. Forty-eight (48) hours after injection of antiserum, a mixture of 2% chicken egg albumin and 1% Evans blue, 5 ml/kg, was administered into the tail vein to induce PCA reaction. Thirty (30) minutes after induction, the rat was sacrificed and the stained portion of the palpebral conjunctiva of the right eye was excised. The dye was extracted into 5 ml of formamide, and the amount of the dye was determined at 625 nm.
The test substance, 100 mg/5 ml/kg, was administered orally 60 minutes prior to induction of PCA reaction.
As a negative control, 5 ml/kg of 0.5% carboxymethylcellulose (CMC) was administered orally. As a positive control, 100 mg/5 ml/kg of diphenhydramine hydrochloride, a commercial antihistaminic, was administered orally.

[1] abbreviates: Table 1, mean ± SD (n = 5), negative control 0.662 ± 0.112, *1 p < 0.05, *2 p < 0.001.
The mark [2] stands for this setting: Table 1, n = 5, *1 p < 0.05, *2 p < 0.001.

In the case of `CN(C)CCOC(c1ccccc1)c1ccccc1` [Diphenhydramine HCl, diphenhydramine hydrochloride, reference compound], under setting [1], the “Absorbance (extracted dye, 625 nm)” value came to 0.413 ± 0.126. Further, under setting [2], the “Degree of Inhibition (%)” value was found to be 37.6%.

In the case of `COc1ccc(OCC(O)CN2CCN(c3ccccc3C(=O)O)CC2)c(C(C)(C)C)c1` (stereo not drawn) [Example 1, 3-[4-(2-Carboxyphenyl)piperazinyl]-1-(2-tert-butyl-4-methoxyphenoxy)propan-2-ol], the “Absorbance (extracted dye, 625 nm)” value under setting [1] was found to be 0.299 ± 0.056. Further, the “Degree of Inhibition (%)” value under setting [2] amounted to 54.8%.

As for `O=C(O)c1ccccc1N1CCN(CC(O)COc2cccc3[nH]ccc23)CC1` (stereo not drawn) [Example 5, 3-[4-(2-Carboxyphenyl)piperazinyl]-1-(1H-indol-4-yloxy)propan-2-ol], the “Absorbance (extracted dye, 625 nm)” value (Table 2, mean ± SD (n = 6), negative control 0.486 ± 0.093, *1 p < 0.001) was 0.276 ± 0.048. Besides, for the setting “Table 2, n = 6, *1 p < 0.001”, the “Degree of Inhibition (%)” value is 43.2%.
